{
  "source": "PubChem BioAssay (NCI)",
  "assay_in_all_cases": "NCI-60 cell line screen, 48 h",
  "key": {"MDA-MB-435": {"system": "MDA-MB-435"}, "RXF 393 renal": {"system": "RXF 393 renal"}, "SNB-19 CNS": {"system": "SNB-19 CNS"}, "SF-268 CNS": {"system": "SF-268 CNS"}, "U251 CNS": {"system": "U251 CNS"}, "MDA-MB-231 breast": {"system": "MDA-MB-231 breast"}, "DU-145 prostate": {"system": "DU-145 prostate"}, "SK-MEL-5 melanoma": {"system": "SK-MEL-5 melanoma"}, "K-562 leukemia": {"system": "K-562 leukemia"}, "COLO 205 colon": {"system": "COLO 205 colon"}, "SW-620 colon": {"system": "SW-620 colon"}, "ACHN renal": {"system": "ACHN renal"}, "HCT-15 colon": {"system": "HCT-15 colon"}, "UO-31 renal": {"system": "UO-31 renal"}, "T-47D breast": {"system": "T-47D breast"}, "M14 melanoma": {"system": "M14 melanoma"}, "BT-549 breast": {"system": "BT-549 breast"}, "A549 NSCLC": {"system": "A549 NSCLC"}, "OVCAR-4 ovarian": {"system": "OVCAR-4 ovarian"}, "OVCAR-8 ovarian": {"system": "OVCAR-8 ovarian"}, "OVCAR-3 ovarian": {"system": "OVCAR-3 ovarian"}, "SK-MEL-28 melanoma": {"system": "SK-MEL-28 melanoma"}, "HOP-62 NSCLC": {"system": "HOP-62 NSCLC"}, "IGROV1 ovarian": {"system": "IGROV1 ovarian"}, "HL-60(TB) leukemia": {"system": "HL-60(TB) leukemia"}, "HT29 colon": {"system": "HT29 colon"}, "NCI-H460 lung": {"system": "NCI-H460 lung"}, "SK-OV-3 ovarian": {"system": "SK-OV-3 ovarian"}, "NCI-H23 lung": {"system": "NCI-H23 lung"}},
  "note": "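Where inhibition never reached the appropriate level, the endpoint shown equals the highest concentration tested. Otherwise, values were interpolated linearly from a five-concentration, 48-hour dose response in 96-well plates. GI50: concentration for 50% inhibition of growth. TGI: concentration producing complete growth inhibition.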",
  "data": [
    {"compound": "COc1cc2c3c(n(CCCNC4CCC4)c(=O)c2cc1OC)-c1cc2c(cc1C3=O)OCO2", "values": [
      {"measurement": "GI50", "setting": "MDA-MB-435", "result": 1590, "unit": "nM"},
      {"measurement": "TGI", "setting": "MDA-MB-435", "result": 3050, "unit": "nM"},
      {"measurement": "GI50", "setting": "RXF 393 renal", "result": 1340, "unit": "nM"},
      {"measurement": "TGI", "setting": "RXF 393 renal", "result": 2850, "unit": "nM"},
      {"measurement": "GI50", "setting": "SNB-19 CNS", "result": 1240, "unit": "nM"},
      {"measurement": "TGI", "setting": "SNB-19 CNS", "result": 3180, "unit": "nM"},
      {"measurement": "GI50", "setting": "SF-268 CNS", "result": 950, "unit": "nM"},
      {"measurement": "TGI", "setting": "SF-268 CNS", "result": 2830, "unit": "nM"},
      {"measurement": "GI50", "setting": "U251 CNS", "result": 838, "unit": "nM"},
      {"measurement": "TGI", "setting": "U251 CNS", "result": 2870, "unit": "nM"},
      {"measurement": "GI50", "setting": "MDA-MB-231 breast", "result": 1320, "unit": "nM"},
      {"measurement": "TGI", "setting": "MDA-MB-231 breast", "result": 2780, "unit": "nM"},
      {"measurement": "GI50", "setting": "DU-145 prostate", "result": 1040, "unit": "nM"},
      {"measurement": "TGI", "setting": "DU-145 prostate", "result": 2560, "unit": "nM"},
      {"measurement": "GI50", "setting": "SK-MEL-5 melanoma", "result": 5090, "unit": "nM"},
      {"measurement": "TGI", "setting": "SK-MEL-5 melanoma", "result": 10300, "unit": "nM"},
      {"measurement": "GI50", "setting": "K-562 leukemia", "result": 554, "unit": "nM"},
      {"measurement": "TGI", "setting": "K-562 leukemia", "result": 3220, "unit": "nM"},
      {"measurement": "GI50", "setting": "COLO 205 colon", "result": 1790, "unit": "nM"},
      {"measurement": "TGI", "setting": "COLO 205 colon", "result": 6620, "unit": "nM"},
      {"measurement": "GI50", "setting": "SW-620 colon", "result": 452, "unit": "nM"},
      {"measurement": "TGI", "setting": "SW-620 colon", "result": 2560, "unit": "nM"},
      {"measurement": "GI50", "setting": "ACHN renal", "result": 873, "unit": "nM"},
      {"measurement": "TGI", "setting": "ACHN renal", "result": 2360, "unit": "nM"},
      {"measurement": "GI50", "setting": "HCT-15 colon", "result": 1330, "unit": "nM"},
      {"measurement": "TGI", "setting": "HCT-15 colon", "result": 3130, "unit": "nM"},
      {"measurement": "GI50", "setting": "UO-31 renal", "result": 1660, "unit": "nM"},
      {"measurement": "TGI", "setting": "UO-31 renal", "result": 4530, "unit": "nM"},
      {"measurement": "GI50", "setting": "T-47D breast", "result": 3730, "unit": "nM"},
      {"measurement": "TGI", "setting": "T-47D breast", "result": 10200, "unit": "nM"},
      {"measurement": "GI50", "setting": "M14 melanoma", "result": 1350, "unit": "nM"},
      {"measurement": "TGI", "setting": "M14 melanoma", "result": 2800, "unit": "nM"},
      {"measurement": "GI50", "setting": "BT-549 breast", "result": 7270, "unit": "nM"},
      {"measurement": "TGI", "setting": "BT-549 breast", "result": 22500, "unit": "nM"},
      {"measurement": "GI50", "setting": "A549 NSCLC", "result": 1300, "unit": "nM"},
      {"measurement": "TGI", "setting": "A549 NSCLC", "result": 3310, "unit": "nM"},
      {"measurement": "GI50", "setting": "OVCAR-4 ovarian", "result": 1770, "unit": "nM"},
      {"measurement": "TGI", "setting": "OVCAR-4 ovarian", "result": 3330, "unit": "nM"},
      {"measurement": "GI50", "setting": "OVCAR-8 ovarian", "result": 1300, "unit": "nM"},
      {"measurement": "TGI", "setting": "OVCAR-8 ovarian", "result": 3610, "unit": "nM"},
      {"measurement": "GI50", "setting": "OVCAR-3 ovarian", "result": 1510, "unit": "nM"},
      {"measurement": "TGI", "setting": "OVCAR-3 ovarian", "result": 3050, "unit": "nM"},
      {"measurement": "GI50", "setting": "SK-MEL-28 melanoma", "result": 1750, "unit": "nM"},
      {"measurement": "TGI", "setting": "SK-MEL-28 melanoma", "result": 3380, "unit": "nM"},
      {"measurement": "GI50", "setting": "HOP-62 NSCLC", "result": 393, "unit": "nM"},
      {"measurement": "TGI", "setting": "HOP-62 NSCLC", "result": 1970, "unit": "nM"},
      {"measurement": "GI50", "setting": "IGROV1 ovarian", "result": 1480, "unit": "nM"},
      {"measurement": "TGI", "setting": "IGROV1 ovarian", "result": 3500, "unit": "nM"},
      {"measurement": "GI50", "setting": "HL-60(TB) leukemia", "result": 525, "unit": "nM"},
      {"measurement": "TGI", "setting": "HL-60(TB) leukemia", "result": 1520, "unit": "nM"},
      {"measurement": "GI50", "setting": "HT29 colon", "result": 1280, "unit": "nM"},
      {"measurement": "TGI", "setting": "HT29 colon", "result": 2850, "unit": "nM"},
      {"measurement": "GI50", "setting": "NCI-H460 lung", "result": 145, "unit": "nM"},
      {"measurement": "TGI", "setting": "NCI-H460 lung", "result": 1660, "unit": "nM"},
      {"measurement": "GI50", "setting": "SK-OV-3 ovarian", "result": 977, "unit": "nM"},
      {"measurement": "TGI", "setting": "SK-OV-3 ovarian", "result": 5630, "unit": "nM"},
      {"measurement": "GI50", "setting": "NCI-H23 lung", "result": 1290, "unit": "nM"},
      {"measurement": "TGI", "setting": "NCI-H23 lung", "result": 3190, "unit": "nM"}
    ]}
  ]
}
